Columns and labels:
Assay type in all cases: in vivo, C57BL/6 mice
[1] = tested on: lymphocyte populations in the spleen of EAE mice; experiment: Splenocyte flow cytometry in chronic phase of EAE; settings: 0.01 mg/kg i.p. daily, 27 days post treatment initiation
Description: Experimental detail: EAE was induced in female C57BL/6 mice as described in Example 1. On the day of disease onset (score >1), mice were started on daily treatment with vehicle only or nalmefene at 0.01 mg/kg by i.p. injection. During the chronic phase (27 days post treatment initiation), mice were culled and their splenocytes assessed by flow cytometry. The percentage of the major lymphocyte populations were identified using CD4 (CD4 T helper cells), CD8 (CD8 cytotoxic T cells), and B220 (B cells), and expressed as % live leukocytes (i.e. CD45^+ cells). Shown are the means and standard error of individual mice with n=3 (healthy), 4 (vehicle) and 9 (NaIM). No significant differences were found between vehicle and healthy or nalmefene by one-way ANOVA with Holm-Sidak's multiple comparison test.
Experimental detail: EAE was induced in female C57BL/6 mice as described in Figure A. On the day of disease onset (score >1), mice were started on daily treatment with vehicle only or nalmefene at 0.01 mg/kg by i.p. injection. During the chronic phase (27 days post treatment initiation), mice were culled and their splenocytes assessed by flow cytometry. Naïve CD4 T cells (CD4^+CD44^−CD62L^high), effector CD4 T cells (CD4^+CD44^+CD62L^−), and central memory CD4T cells (CD4^+CD44^+CD62L^high) are expressed as % CD4 T cells. “Teff:cm ratio” is the ratio of effector to central memory T cells. […]

EAE-induced weight loss = settings: 0.1 or 0.03 mg/kg i.p. daily from day 17
Description: Experimental detail: Female, C57BL/6 mice were immunized subcutaneously (s.c.) in the hind flanks to induce EAE using myelin oligodendrocyte glycoprotein (MOG) peptide 35-55 (50 μg/mouse) in complete Freund's adjuvant containing heat-killed Mycobacterium tuberculosis (500 μg/mouse). In addition, pertussis toxin (200 ng/mouse) was administered intraperitoneally (i.p.) on days 0 and 2. Mice were weighed and scored daily. On day 17 (dotted line), mice were started on daily treatment with vehicle only (Veh; 10% tween and 10% DMSO in saline) or Nalmefene (NaIM) at 0.1, 0.03, or 0.01 mg/kg by i.p. injection. Nalmefene was supplied by University of Kansas, Synthetic Chemical Biology Core Laboratory, 97.6% pure by HPLC). Treatment allocation was blinded. The disease was scored from 0-5 with 0 (normal), 1 (partial tail paralysis), 2 (full tail paralysis), 3 (one hind limb paralysed or severe disability in both hind limbs), 4 (complete paralysis of both hind limbs) and 5 (moribund). This model is a standard disease model for multiple sclerosis and is described in White et al. 2018. Scientific Reports. 8:259 which is incorporated herein by reference in its entirety. […]
Experimental detail: EAE was induced in female C57BL/6 mice as described in Example 1. Mice were weighed daily and the % change in body weight calculated. […]

[2] = tested on: cuprizone-induced demyelination in mice; experiment: Cuprizone demyelination disease model, TEM of corpus callosum, g-ratio; settings: 0.3% cuprizone diet, 0.01 mg/kg i.p. daily from day 28, day 70
Description: Experimental details: A demyelinating disease state was induced in female C57BL/6 mice (8-14 weeks old and between 17-23 grams in weight). The mice were fed cuprizone-containing chow (0.3% (w/w) cuprizone) or chow only (normal controls) for 35 days, at which point they were switched back to standard chow. At day 28, mice were started on daily treatment with vehicle only (DMSO: Tween 80: Saline) or nalmefene at 0.01 mg/kg by i.p. injection. On day 70, mice were culled and brain tissue were processed for transmission electron microscopy (TEM). Mice were weighed daily and the % weight change calculated.
Experimental details: A demyelinating disease state was induced in female C57BL/6 mice as described in FIG. 19A. FIGS. 19A-C show representative Transmission Electron Microscopy (TEM) images of the corpus callosum of mice (A) fed normal diet and (B-C) fed 0.3% cuprizone to induce demyelination. Following the time course described in FIG. 19A, cuprizone fed mice were administered (B) vehicle only treatment, and (C) nalmefene (0.01 mg/kg/i.p.) and then sacrificed on experimental day 70. Scale bars represent 2000 nm.
Mice fed a normal diet have a mean g-ratio of 0.78±0.09 in contrast to mice fed 0.3% cuprizone that have a significant increase in g-ratio of 0.84±0.1 corresponding to the decreased myelin thickness (####p<0.0001). […] Data represents measurements of 5 TEM images of the corpus callosum from 2-3 mice per treatment group and g-ratios calculated (a measure of myelin thickness) using Image J software. Analysis was performed by individuals blinded to treatment groups. (n=200-400 axons per treatment group). All data analysed by one-way ANOVA followed by Turkeys multiple comparisons test.

SMILES: C=C1CC[C@@]2(O)[C@H]3Cc4ccc(O)c5c4[C@@]2(CCN3CC2CC2)[C@H]1O5 [nalmefene, (4R,4aS,7aS,12bS)-3-(cyclopropylmethyl)-7-methylidene-2,4,5,6,7a,13-hexahydro-1H-4,12-methanobenzofuro[3,2-e]isoquinoline-4a,9-diol]
- Teff:cm ratio (effector to central memory CD4 T cells) in spleen [1]: reduced ratio
- proportion of major lymphocyte populations in the spleen (CD4, CD8, B220; % live leukocytes) [1]: does not alter the proportion of the major lymphocyte populations in the spleen
- % change in body weight (EAE-induced weight loss): recover from EAE-induced weight loss
- axonal-myelin structure and remyelination (TEM) [2]: more normal axonal-myelin structure and organisation, and increased remyelination
- g-ratio (measure of myelin thickness), corpus callosum [2]: 0.791±0.01
- g-ratio compared to vehicle [2]: significantly lower g-ratio compared to vehicle only treated

— patent US20210023074A1, “TREATMENT OF DEMYELINATING DISEASES” (Victoria Link Ltd., priority 2018, published 2021)
